# Experimental data: patent US4677111A, “N-benzoyl-N'-(3-nitrophenyl) urea compounds, and antitumorous compositions containing them” (Ishihara Sangyo Kaisha Ltd., priority 1984, dated 1987)
# Where two headings read alike, the source gives them in different places.
# Key:
# p-388 leukemia cells [1] = experiment: Test Example 1 (Intraperitoneal-intraperitoneal) antitumour activity, increase life span; type: in vivo, BDF1 mice; conditions: Mus musculus, P388, ip, 720 h
# Protocol: To BDF1 mice, p-388 leukemia cells were intraperitoneally inoculated in an amount of 1×10^6 cells/mouse. A test drug was intraperitoneally administered twice, i.e. one day and four days after the inoculation. […] The increase life span ILS (%) of each treated group was obtained with the number of survival days of mice of the control group to which a physiological saline was administered, being evaluated as 0. The drugs were dispersions obtained by adding small amounts of surfactants (e.g. Tween-80) to the test compounds.
# ILS (%)*: Increase Life Span, calculated in accordance with the following
# formula: ILS (%) = MST100, where MST is the ratio of median survival time
# of test and control animals.
# p-388 leukemia cells [2] = experiment: Test Example 2 (intraperitoneal-oral) antitumour activity, increase life span; type: in vivo, BDF1 mice; conditions: oral drug, days 1 and 4
# Protocol: A test drug was orally administered twice i.e. one day and four days after the inoculation.
# The mixture was pulverized in a wet system by a sand mill using glass beads (80% of particles having a particle size of not larger than 2 μm). Then, 5 parts by weight of xanthane gum (2% solution) was added thereto to obtain an aqueous suspension.
# Acute toxicity, LD50 = conditions: mouse, in vivo, ip; ddY mice, intraperitoneal, Formulation Example 4
# Protocol: To ddY mice (10 animals), a drug containing one of Compound Nos. 1-4, 7, 9 and 10 of the present invention formulated in accordance with Formulation Example 4 was intraperitoneally administered, and the LD50 value was measured and found to be at least 100 mg/kg in each case, and the LD50 value of Compound No. 6 of the invention found to be at least 50 mg/kg.
# The Compound No. 2 of the present invention was preliminarily pulverized by a centrifugal pulverizer. On the other hand, 5 parts by weight of polyoxyethylene (60) hardened castor oil, 0.2 part by weight of silicone and 0.3 part by weight of a polyoxyethylene-polyoxypropylene block polymer were added to 79.5 parts by weight of a physiological saline to obtain an aqueous solution, to which 10 parts by weight of the above pulverized Compound No. 2 of the present invention was added. The mixture was pulverized in a wet system by a sand mill using glass beads (80% of particles having a particle size of not larger than 2 μm). Then, 5 parts by weight of xanthane gum (2% solution) was added thereto to obtain an aqueous suspension.
# [3] = read-out: ILS (increase life span)
# [4] = i.p. drug, days 1 and 4, 100 mg/kg/day, read-out: ILS (increase life span)
smiles,measurement,setting,value
"O=c1[nH]cc(F)c(=O)[nH]1 [5-Fluorouracil, reference compound]",ILS at 60 mg/kg/day,p-388 leukemia cells [1]; [3],85%
"O=C(NC(=O)c1ccccc1Cl)Nc1ccc(Oc2ncc(Cl)cn2)c(Cl)c1 [Comparative Compound No. 1, N--(2chlorobenzoyl)-N'--[3chloro-4-(5-chloro-2-pyrimidinyloxy)phenyl]urea]",ILS at 100 mg/kg/day,p-388 leukemia cells [1]; [4],33%
same,ILS (increase life span),p-388 leukemia cells [2]; 800 mg/kg/day,11%
same,ILS (increase life span),p-388 leukemia cells [2]; 1600 mg/kg/day,24%
"O=C(NC(=O)c1ccccc1Br)Nc1ccc(Oc2ncc(I)cn2)c(Cl)c1 [Comparative Compound No. 2, N--(2bromobenzoyl)-N'--[3chloro-4-(5-iodo-2-pyrimidinyloxy)phenyl]urea]",ILS at 100 mg/kg/day,p-388 leukemia cells [1]; [4],65%
same,ILS (increase life span),p-388 leukemia cells [2]; 400 mg/kg/day,4%
same,ILS (increase life span),p-388 leukemia cells [2]; 800 mg/kg/day,2%
"O=C(NC(=O)c1ccccc1Cl)Nc1ccc(Oc2ccc(Cl)nn2)c(Cl)c1 [Comparative Compound No. 3, N--(2chlorobenzoyl)-N'--[3chloro-4-(6-chloro-3-pyridazinyloxy)phenyl]urea, reference compound]",ILS at 200 mg/kg/day,"p-388 leukemia cells [1]; i.p. drug, days 1 and 4",24%
"O=C(NC(=O)c1ccccc1Cl)Nc1ccc(Oc2ccc(Br)nn2)c(Cl)c1 [Comparative Compound No. 4, N--(2chlorobenzoyl)-N'--[4(6-bromo-3-pyridazinyloxy)-3-chlorophenyl]urea, reference compound]",ILS at 100 mg/kg/day,p-388 leukemia cells [1]; [4],36%
"O=C(NC(=O)c1ccccc1[N+](=O)[O-])Nc1ccc(Oc2ccc(C(F)(F)F)cn2)c(Cl)c1 [Comparative Compound No. 5, reference compound]",ILS at 100 mg/kg/day,p-388 leukemia cells [1]; [4],70%
"O=C(NC(=O)c1ccccc1Cl)Nc1ccc(Oc2ccc(Br)cn2)c(Cl)c1 [Comparative Compound No. 6, N--(2chlorobenzoyl)-N'--[4(5-bromo-2-pyridyl-oxy)-3-chlorophenyl]urea, reference compound]",ILS at 200 mg/kg/day,"p-388 leukemia cells [1]; i.p. drug, days 1 and 4",50%
"O=C(NC(=O)c1ccccc1[N+](=O)[O-])Nc1ccc(Oc2ncc(I)cn2)c([N+](=O)[O-])c1 [Compound No. 1, N-(2-nitrobenzoyl)-N'-[4-(5-iodo-2-pyrimidinyloxy)-3-nitrophenyl]urea]",ILS at 50 mg/kg/day,p-388 leukemia cells [1]; [3],111%
same,LD50,"Acute toxicity, LD50",≥ 100 mg/kg
"O=C(NC(=O)c1ccccc1[N+](=O)[O-])Nc1ccc(Oc2ncc(Cl)cn2)c([N+](=O)[O-])c1 [Compound No. 2, N-(2-nitrobenzoyl)-N'-[4-(5-chloro-2-pyrimidinyloxy)-3-nitrophenyl]urea]",ILS at 50 mg/kg/day,p-388 leukemia cells [1]; [3],134%
same,ILS (increase life span),p-388 leukemia cells [2]; 200 mg/kg/day,90%
same,ILS (increase life span),p-388 leukemia cells [2]; 400 mg/kg/day,108%
same,LD50,"Acute toxicity, LD50",≥ 100 mg/kg
"O=C(NC(=O)c1ccccc1[N+](=O)[O-])Nc1ccc(Oc2ncc(Br)cn2)c([N+](=O)[O-])c1 [Compound No. 3, N-(2-nitrobenzoyl)-N'-[4-(5-bromo-2-pyrimidinyloxy)-3-nitrophenyl]urea]",ILS at 50 mg/kg/day,p-388 leukemia cells [1]; [3],120%
same,ILS (increase life span),p-388 leukemia cells [2]; 200 mg/kg/day,39%
same,ILS (increase life span),p-388 leukemia cells [2]; 400 mg/kg/day,46%
same,LD50,"Acute toxicity, LD50",≥ 100 mg/kg
"O=C(NC(=O)c1ccccc1Cl)Nc1ccc(Oc2ncc(Cl)cn2)c([N+](=O)[O-])c1 [Compound No. 4, N-(2-chlorobenzoyl)-N'-[4-(5-chloro-2-pyrimidinyloxy)-3-nitrophenyl]urea]",ILS at 100 mg/kg/day,p-388 leukemia cells [1]; [3],102%
same,LD50,"Acute toxicity, LD50",≥ 100 mg/kg
"O=C(NC(=O)c1ccc(Cl)cc1[N+](=O)[O-])Nc1ccc(Oc2ncc(Cl)cn2)c([N+](=O)[O-])c1 [Compound No. 6, N-(4-chloro-2-nitrobenzoyl)-N'-[4-(5-chloro-2-pyrimidinyloxy)-3-nitrophenyl]urea]",ILS at 25 mg/kg/day,p-388 leukemia cells [1]; [3],165%
same,LD50,"Acute toxicity, LD50",≥ 50 mg/kg
"O=C(NC(=O)c1ccccc1[N+](=O)[O-])Nc1ccc(Oc2ccc(Br)nn2)c([N+](=O)[O-])c1 [Compound No. 7, N-(2-nitrobenzoyl)-N'-[4-(6-bromo-3-pyridazinyloxy)-3-nitrophenyl]urea]",ILS at 100 mg/kg/day,p-388 leukemia cells [1]; [3],152%
same,LD50,"Acute toxicity, LD50",≥ 100 mg/kg
"O=C(NC(=O)c1ccccc1[N+](=O)[O-])Nc1ccc(Oc2ccc(C(F)(F)F)cn2)c([N+](=O)[O-])c1 [Compound No. 9, N-(2-nitrobenzoyl)-N'-[4-(5-trifluoromethyl-2-pyridyloxy)-3-nitrophenyl]urea]",ILS at 100 mg/kg/day,p-388 leukemia cells [1]; [3],119%
same,LD50,"Acute toxicity, LD50",≥ 100 mg/kg
"O=C(NC(=O)c1ccccc1[N+](=O)[O-])Nc1ccc(Oc2ccc(Cl)cn2)c([N+](=O)[O-])c1 [Compound No. 10, N-(2-nitrobenzoyl)-N'-[4-(5-chloro-2-pyridyloxy)-3nitrophenyl]urea]",ILS at 100 mg/kg/day,p-388 leukemia cells [1]; [3],153%
same,LD50,"Acute toxicity, LD50",≥ 100 mg/kg
"O=C(NC(=O)c1ccccc1[N+](=O)[O-])Nc1ccc(Oc2ncc(I)cn2)c(Cl)c1 [compound 7, N--(2nitrobenzoyl)-N'--[3chloro-4-(5-iodo-2-pyrimidinyloxy)phenyl]urea]",ILS (increase life span),p-388 leukemia cells [2]; 1600 mg/kg/day,41%
